The species entered for experiment [1] is Mus musculus. Nature of the experiment: animal or person. The format is functional. Conditions: po.
Description: In vivo inhibitory activity against mouse hepatic cholesterol synthesis administered orally at 24 mpk
Experiment [2] concerns Mus musculus. Description: In vivo inhibitory activity against mouse hepatic cholesterol synthesis administered subcutaneously. Format: functional. Conditions: sc.
Another experiment addresses T1, Squalene synthase (Rattus norvegicus, UniProt Q02769).
T1 sequence (Q02769 whole entry): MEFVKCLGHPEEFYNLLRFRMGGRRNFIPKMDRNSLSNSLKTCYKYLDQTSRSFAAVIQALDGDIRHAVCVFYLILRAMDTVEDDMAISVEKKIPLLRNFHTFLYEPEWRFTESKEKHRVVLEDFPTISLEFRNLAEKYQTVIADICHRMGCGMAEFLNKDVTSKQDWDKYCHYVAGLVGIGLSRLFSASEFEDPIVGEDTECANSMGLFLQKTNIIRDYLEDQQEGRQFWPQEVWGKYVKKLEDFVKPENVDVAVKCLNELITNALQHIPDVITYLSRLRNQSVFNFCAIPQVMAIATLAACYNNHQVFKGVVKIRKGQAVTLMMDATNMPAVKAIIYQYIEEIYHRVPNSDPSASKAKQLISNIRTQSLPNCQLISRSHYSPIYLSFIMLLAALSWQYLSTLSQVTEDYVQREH
Nature of the experiment: In vitro inhibitory activity against rat squalene synthase.

The subject of experiment [3] is Mus musculus. Description: In vivo inhibitory activity against mouse hepatic cholesterol synthesis administered orally at 48 mpk. Conditions: po. Format: functional.
The subject of experiment [4] is Mus musculus. Description: In vivo inhibitory activity against mouse hepatic cholesterol synthesis administered orally at 40 mpk. Format: functional. The note with it: po.

The structures appear in SMILES notation.

Inhibition in vivo, ED50 and IC50 data for 4 compounds are collected here from ChEMBL document CHEMBL1128658, “Isolation, structure determination and squalene synthase activity of L-731,120 and L-731,128, alkyl citrate analogs of zaragozic acids A and B” (Bioorg Med Chem Lett, 1995).

A word on the inhibition in vivo: it is the change of the read-out against control, counted positive when it falls. Low values mean a response near the control, high ones a response far below the control. The compound `C=C(CCC12OC(C(=O)O)C(O)(C(=O)O)C(C(=O)O)(O1)[C@H](O)[C@H]2O)[C@@H](OC(C)=O)[C@H](C)Cc1ccccc1` (stereo partly drawn) gave an inhibition in vivo at 24 mg/kg in the experiment listed under Mus musculus [1] of 34%.

The term ED50 denotes the midpoint of the dose-response relation. Read a high ED50 as weaker potency. Broadly, the IC50 is the concentration at which inhibition is half-maximal. The low end stands for greater potency in that assay, the high end for weaker potency in that assay. For the compound `C/C(=C\C(C)Cc1ccccc1)CCCCCC(C(=O)O)C(O)(CC(=O)O)C(=O)O` (stereo not drawn), in the experiment with Mus musculus [2], the ED50 came out at 15 mg/kg. In addition, the IC50 against Squalene synthase stood at 0.26 µM. The compound further registered an inhibition in vivo at 48 mg/kg with Mus musculus [3] of 0%.

For the compound `CCCCCCCCCCCCCCCCC(C(=O)O)C(O)(CC(=O)O)C(=O)O` (stereo not drawn), the midpoint of inhibition against Squalene synthase, the IC50, lay at 9 µM. This compound also came in with an inhibition in vivo at 48 mg/kg in the experiment on Mus musculus [3] of 0%.

Consider `C=C(CCC12OC(C(=O)O)C(O)(C(=O)O)C(C(=O)O)(O1)[C@H](OC(=O)/C=C/[C@@H](C)C[C@@H](C)CC)[C@H]2O)[C@@H](OC(C)=O)[C@H](C)Cc1ccccc1` (stereo partly drawn) [ZARAGOZIC ACID A], for which, in the experiment on Mus musculus [4], testing at 40 mg/kg gave an inhibition in vivo of 20%. The compound further returned an ED50 in the experiment on Mus musculus [2] of 0.2 mg/kg.
